The values that follow come from patent US5336621A, “Divalent hapten derivatives” (Hoechst Celanese Corporation, priority 1988, dated 1994).

A short description of this series: Solubility comparison for bis-(theophylline-8-butyryl)-diamides. It counts as physicochemical. The procedure:
The bis-(theophylline-8-butyryl)-diamides of 1,6-hexanediamine and 4,9-dioxa-1,12-dodecanediamine (examples 2 and 3) were each dissolved in dimethylsulfoxide. The 4,9-dioxa-1,12-dodecanediamide dissolved readily to give a solution of 10 mg/0.5 ml at room temperature.

Turning to `Cn1c(=O)c2[nH]c(CCCC(=O)NCCCCCCNC(=O)CCCc3nc4c([nH]3)c(=O)n(C)c(=O)n4C)nc2n(C)c1=O` [Example 2, bis-(Theophylline-8-butyryl)-1,6-hexanediamine], for the setting “10 mg/2 ml DMSO solution diluted into a two-fold volume of pH 7.5 phosphate buffer”, the “behaviour on dilution of DMSO solution into aqueous phosphate buffer” value was “immediate heavy precipitation of divalent hapten was noted”. Besides, where the note is “required heating to obtain a solution in dimethylsulfoxide”, the “solution obtained in dimethylsulfoxide” value came to 10 mg/2 ml.

Consider `Cn1c(=O)c2[nH]c(CCCC(=O)NCCCOCCCCOCCCNC(=O)CCCc3nc4c([nH]3)c(=O)n(C)c(=O)n4C)nc2n(C)c1=O` [Example 3, bis-(Theophylline-8-butyryl)-4,9-dioxa-1,12-dodecane-diamide], for which, where the note is “10 mg/0.5 ml DMSO solution diluted into 2 ml of 50 mM aqueous sodium phosphate buffer (pH 7.5)”, the “behaviour on dilution of DMSO solution into aqueous phosphate buffer” value is given as “clear, stable solution”. Where the note is “dissolved readily in dimethylsulfoxide, room temperature”, the “solution obtained in dimethylsulfoxide” value is recorded as 10 mg/0.5 ml.
